Laboratory results reported in patent US20080269276A1, “COMPOSITIONS USEFUL FOR TREATING IRRITABLE BOWEL SYNDROME” (Dynogen Pharmaceuticals, Inc., priority 2007, published 2008).
Entries after “also recorded” stand apart in the source; their conditions may differ.

Tests used:
[1] = system: males and females with IBS-c; experiment: Phase 2a clinical trial: safety measurements (vital signs, adverse events, clinical laboratory testing, ECGs); format: in vivo, human; conditions: 0.2, 0.5, 0.8 or 1.4 mg three times a day for 28 days
Experimental: The Clinical Trial reported herein was a Phase 2a, Randomized, Double-Blind, Placebo-Controlled Study. In the Study, 91 males and females with IBS-c were administered doses of DDP733 (0.2, 0.5, 0.8 and 1.4 mg) and placebo, three times a day for 28 days (4 weeks). Study Details: • Phase 2a, randomized, double-blinded, placebo controlled parallel group design • 91 males and females with IBS-c • 7 week study with 4 weeks of treatment • Five treatment groups: • DDP733: 0.2 mg, 0.5 mg, 0.8 mg or 1.4 mg three times a day (approximately 30 to 60 minutes before breakfast, lunch and dinner) • PLACEBO: Three times a day (approximately 30 to 60 minutes before breakfast, lunch and dinner). Safety measurements included monitoring of vital signs and adverse events, clinical laboratory testing and performance of electrocardiograms (ECGs).

[2] = system: males and females with IBS-c; experiment: Phase 2a randomized, double-blind, placebo-controlled clinical trial: weekly symptom-based assessments (OSGA, abdominal discomfort/pain, constipation, satisfaction with bowel habit); format: in vivo, human
Experimental: The Clinical Trial reported herein was a Phase 2a, Randomized, Double-Blind, Placebo-Controlled Study. In the Study, 91 males and females with IBS-c were administered doses of DDP733 (0.2, 0.5, 0.8 and 1.4 mg) and placebo, three times a day for 28 days (4 weeks). Study Details: • Phase 2a, randomized, double-blinded, placebo controlled parallel group design • 91 males and females with IBS-c • 7 week study with 4 weeks of treatment • Five treatment groups: • DDP733: 0.2 mg, 0.5 mg, 0.8 mg or 1.4 mg three times a day (approximately 30 to 60 minutes before breakfast, lunch and dinner) • PLACEBO: Three times a day (approximately 30 to 60 minutes before breakfast, lunch and dinner). • Assess effect on relief of IBS-c using symptom-based assessment including the following weekly questions: Overall response (OSGA); Abdominal discomfort/pain; Constipation; and Satisfaction with bowel habit. • Assess effect on pharmacodynamic measure (gastrointestinal transit) at baseline and week 4 using radio-opaque markers. • Establish safety profile. Key Subject Inclusion Criteria: • 1. Male or female from 18 to 65 years of age, inclusive • 2. IBS-c for at least three months prior to randomization as defined by the subject's response to the criteria below adapted from the Rome II • Modular Questionnaire: • a. Subject experiences discomfort or pain in the abdomen during at least 3 weeks (at least one day in each week) in the last 3 months. • b. Subject experiences one or more of the following: • i. Discomfort or pain that gets better or stops after a bowel movement • ii. Change in the usual number of bowel movements (either more or fewer) when the discomfort or pain starts • iii. Softer or harder stools than usual when the discomfort or pain starts • c. Patient experiences two or more of the following at least one-fourth (¼) of the occasions or days in the last three months: • i. Fewer than three bowel movements per week (0-2) • ii. Hard or lumpy stools • iii. Straining during a bowel movement • d. Patient experiences none of the following more than one-fourth (¼) of the occasions or days in the last three months: • i. More than three bowel movements a day (4 or more) • ii. Loose, mushy or watery stools • iii. Having to rush to the toilet to have a bowel movement • 3. Completion of at least six days of daily diary assessments in the week of screening prior to Visit 3 with a documented average stool consistency score of ≦2.5. Stool consistency was rated as 1=very hard, 2=hard, 3=formed, 4=loose, 5=watery. Clinical Symptoms were assessed using the following weekly questions: [table] […] Subjects were defined as Overall SGA responders, prior to the study, if: • 1. Somewhat relieved or better at 100% of SGAs (Response 3 at all weekly time points), or considerably/completely relieved for at least 50% of SGAs (Response 1 or 2 for at least 2 of the 4 weekly timepoints) or considerably/completely relieved at Week 4 (Response 1 or 2 at Week AND • 2. No more than 5 days of laxative use excluding bulk-forming laxatives over the 4-week treatment period.

[3] = overall responders within the 1.4 mg, 3 times a day treatment group

diarrhea reported by responders during the treatment period ([2]; 4.2 mg/day group, responders): no responders reported any diarrhea
Compound: O=C(N[C@H]1CN2CCC1CC2)c1c[nH]c2ccsc2c1=O [DDP733, (R)—N-1-azabicyclo[2.2.2]oct-3-yl-4,7-dihydro-7-oxothieno[3,2-b]pyridine-6-carboxamide]
drug related adverse events (nausea, pruritis and rash) [1]: mainly mild-moderate, transient in nature and required no intervention
lab or ECG abnormalities [1]: no pattern of lab or ECG abnormalities
subjects reporting overall symptom relief (Overall SGA responders, OSGA) ([2]; 1.4 mg three times a day (4.2 mg/day), oral, 4-week treatment, IBS-c subjects, placebo about 15%): 54%
statistical significance on clinical endpoint overall symptom relief (OSGA) ([2]; 1.4 mg three times a day (4.2 mg/day), Pearson chi squared test): Statistical significance (using the Pearson chi squared test) was achieved
OSGA clinical response at one week post-treatment ([2]; 1.4 mg three times a day, one week post-treatment (FIG. 2)): lost (i.e., returned to the level of placebo); also recorded: loss of response (return to level of placebo response)
other weekly subject global assessments (abdominal discomfort/pain, constipation, satisfaction with bowel habit) ([2]; 4.2 mg/day dose, Questionnaires 2, 3 and 4): consistent pattern of improvement
laxative use among responders showing overall symptom relief ([2]; 4.2 mg/day group, responders, treatment period): relief was achieved in all responders without the use of laxatives
constipation and satisfaction with bowel habit [2, 3]: also improved on treatment
weekly pain response (Variable 2, abdominal discomfort/pain) [2, 3]: a decrease in weekly pain response was observed
